Assay results: patent publication US7432360B2, “Multi-dose erythropoietin formulations” (Aventis Pharmaceuticals Inc., priority 2005, dated 2008)
Read-outs that look alike come from different tables or passages of the source.

Columns and labels:
[1] = Appearance of the solution when the preservative is used in the EPO formulation; assay type: physicochemical
Experimental: Multi-dose EPO-containing solutions were formulated as sterile, non-pyrogenic, colorless aqueous solutions in water for injection at 10,000 units and 20,000 units concentration. Solutions prepared contained a 20 mM phosphate buffer (sodium phosphate monobasic monohydrate, and sodium phosphate dibasic heptahydrate), 0.01% w/v polysorbate 20 as an antiadsorbent, 0.45-0.8% w/v sodium chloride (depending on the preservative system that was used, the amount of sodium chloride was adjusted to produce an Osmolality of approximately 300 mOsm/kg), and a preservative system.

[2] = Stability of EPO in preserved formulations, reverse phase HPLC assay (% label claim); assay type: physicochemical; conditions: in the presence of thimerosal
Experimental: Prototype batches were made using these selected preservatives and placed on stability at 5° C. and 25° C. Samples were tested by a reverse phase HPLC method.
Detection of the EPO protein was monitored at 210 nm.

[3] = tested on: indicator aerobic bacteria and molds; assay: Preservative challenge test (USP and EP criteria); assay type: cell-based; conditions: in the EPO formulation
[4] = pH>3; cited from earlier work
[5] = preservative in EPO formulation (phosphate buffer, polysorbate 20, sodium chloride, pH approx. 7.0)

Structure (SMILES)	appearance of solution [1, 5]	further results
COC(=O)c1ccc(O)cc1 [Methyl paraben]	hazy to cloudy	–
C[CH2][Hg][S]c1ccccc1C(=O)[O-].[Na+] [Thimerosal]	clear	chemical stability of the EPO formulation [2]: good chemical stability; preservative efficacy [3]: good preservative efficacy
CC(C)(O)C(Cl)(Cl)Cl [chlorobutanol]	–	stability of chlorobutanol [4]: not stable
Cc1cccc(O)c1 [m-cresol]	hazy to cloudy	–
Oc1ccccc1 [phenol]	–	appearance of solution [1]: hazy to cloudy
O=[N+]([O-])[O-].[Hg+][c]1ccccc1 [phenyl mercuric nitrate]	cloudy	–
CCCOC(=O)c1ccc(O)cc1 [propyl paraben]	hazy to cloudy	–
